Assay results as given in patent US20100022531A1, “NOVEL COMPOUNDS AS P2X7 MODULATORS AND USES THEREOF” (RENOVIS, INC., priority 2005, published 2010).
Where two headings read alike, the source gives them in different places.

Target: T1, P2X7 receptor (Homo sapiens, UniProt Q99572)
T1 construct: host or cells: THP-1 cells differentiated with LPS and IFN-γ
T1 sequence (Q99572 1-595): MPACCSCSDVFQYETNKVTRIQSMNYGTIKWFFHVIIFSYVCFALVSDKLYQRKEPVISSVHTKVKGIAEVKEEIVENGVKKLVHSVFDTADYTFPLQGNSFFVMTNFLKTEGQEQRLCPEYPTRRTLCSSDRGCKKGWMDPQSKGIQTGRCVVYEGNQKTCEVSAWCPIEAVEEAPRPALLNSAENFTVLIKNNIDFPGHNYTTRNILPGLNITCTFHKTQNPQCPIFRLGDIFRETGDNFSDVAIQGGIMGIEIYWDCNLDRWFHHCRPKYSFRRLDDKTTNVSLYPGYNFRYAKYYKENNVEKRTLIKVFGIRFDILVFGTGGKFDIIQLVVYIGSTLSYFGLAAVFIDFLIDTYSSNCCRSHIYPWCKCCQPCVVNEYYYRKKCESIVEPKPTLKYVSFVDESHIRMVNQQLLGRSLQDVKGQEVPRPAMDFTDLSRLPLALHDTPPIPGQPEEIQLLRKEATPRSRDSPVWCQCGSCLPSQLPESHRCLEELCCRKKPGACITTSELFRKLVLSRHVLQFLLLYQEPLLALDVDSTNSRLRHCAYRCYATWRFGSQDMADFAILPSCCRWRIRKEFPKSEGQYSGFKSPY
Assay: Alternate method for IL-1β release assay (differentiated THP-1 cells, BzATP-stimulated, ELISA)
Format: cell-based
Conditions: P2X7; for inhibition at 0.3 µM: read-out: IL-1β % inhib @ 0.3 μM; for inhibition at 0.1 µM: read-out: IL-1β % inhib @ 0.1 μM
Method in brief: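 After 16 h differentiation with 100 ng/mL LPS and 100 ng/mL IFN-γ plus a further 2 h LPS priming, THP-1 cells were pretreated 30 min with compound, then stimulated with 250 uM BzATP (final) for 45 min. Supernatant IL-1β measured by ELISA; percent inhibition from background-adjusted levels versus untreated cells.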

[1] = 0.3 μM compound (symbols * to ****)
[2] = 0.3 μM compound (asterisk symbols)

Row | SMILES | inhibition at 0.3 µM [1] [%] | inhibition at 0.3 µM [2] [%] | further results
1 | O=C(SCc1ccc(F)cc1)N1CCc2c(ncnc2NCC23CC4CC(CC(C4)C2)C3)C1 [Compound 335] | – | – | inhibition at 0.1 µM (0.1 μM compound (symbols + to ++++)): 0 to 25%
2 | COc1ccc(CN2CCc3c(ncnc3NCC34CC5CC(CC(C5)C3)C4)C2)cc1OC [Compound 177] | – | 0 to 25 | –
3 | Cc1ccc(CN2CCc3c(ncnc3NCC34CC5CC(CC(C5)C3)C4)C2)cc1C [Compound 196] | – | 0 to 25 | –
4 | COc1ccc(CN2CCc3c(ncnc3NCC34CC5CC(CC(C5)C3)C4)C2)c(OC)c1 [Compound 219] | 0 to 25 | – | –
5 | C[C@H](NC(=O)OC(C)(C)C)C(=O)N1CCc2c(ncnc2NCC(O)C23CC4CC(CC(C4)C2)C3)C1 (stereo partly drawn) [Compound 708, {(S)-2-[4-(2-Adamantan-1-yl-2-hydroxy-ethylamino)-5,8-dihydro-6H-pyrido[3,4-d]pyrimidin-7-yl]-1-methyl-2-oxo-ethyl}-carbamic acid tert-butyl ester] | – | – | inhibition at 0.03 µM (at 0.03 μM (asterisk symbols), read-out: IL-1β % inhib @ 0.3 μM or @ 0.03 μM): 50 to 75%
6 | COc1ccc(-c2ccc(S(=O)(=O)N3CCc4c(ncnc4NCC45CC6CC(CC(C6)C4)C5)C3)cc2)cc1 [Compound 35] | – | 0 to 25 | –
7 | N#Cc1cc(CN2CCc3c(ncnc3NCC34CC5CC(CC(C5)C3)C4)C2)ccc1F [Compound 206] | > 75 | – | –
8 | Cc1ccc(S(=O)(=O)N2CCc3c(ncnc3NCC34CC5CC(CC(C5)C3)C4)C2)cc1Cl [Compound 64] | – | 25 to 50 | –
9 | Cc1cc(C(=O)N2CCc3c(ncnc3NCC34CC5CC(CC(C5)C3)C4)C2)c(C)o1 [Compound 146] | – | > 75 | –
10 | COc1cc(OC)cc(C(=O)N2CCc3c(ncnc3NCC34CC5CC(CC(C5)C3)C4)C2)c1 [Compound 101] | – | 0 to 25 | –
11 | CN1CCC(N(C)CC(=O)N2CCc3c(ncnc3NCC3C4CC5CC(C4)CC3C5)C2)C1 (stereo not shown) [Compound 314] | 0 to 25 | – | –
12 | Cc1noc(C)c1S(=O)(=O)N1CCc2c(ncnc2NCC23CC4CC(CC(C4)C2)C3)C1 [Compound 26] | – | 50 to 75 | –
13 | CCN1CCN(CC(=O)N2CCc3c(ncnc3NCC3C4CC5CC(C4)CC3C5)C2)CC1 (stereo not shown) [Compound 278] | 25 to 50 | – | –
14 | Fc1cc(Cl)ccc1CN1CCc2c(ncnc2NCC23CC4CC(CC(C4)C2)C3)C1 [Compound 246] | > 75 | – | –
15 | COc1cccc(C(=O)N2CCc3c(ncnc3NCC34CC5CC(CC(C5)C3)C4)C2)c1 [Compound 105] | – | – | inhibition at 0.1 µM (0.1 μM compound (plus symbols)): 25 to 50%
16 | O=C(c1cccc(F)c1)N1CCc2c(ncnc2NCC23CC4CC(CC(C4)C2)C3)C1 [Compound 83] | – | – | inhibition at 0.1 µM (0.1 μM compound (plus symbols)): > 75%
17 | COc1cc(F)c(CN2CCc3c(ncnc3NCC34CC5CC(CC(C5)C3)C4)C2)cc1OC [Compound 234] | 0 to 25 | – | –
18 | O=S(=O)(c1cccc(C(F)(F)F)c1)N1CCc2c(ncnc2NCC23CC4CC(CC(C4)C2)C3)C1 [Compound 15] | – | 0 to 25 | –

More lines, main results first:

Row | inhibition at 0.3 µM [1] [%] | inhibition at 0.3 µM [2] [%] | SMILES | further results
19 | 0 to 25 | – | CC(=O)Nc1ccc(CN2CCc3c(ncnc3NCC34CC5CC(CC(C5)C3)C4)C2)cc1 [Compound 227] | –
20 | – | 50 to 75 | CCc1ccc(C(=O)N2CCc3c(ncnc3NCC34CC5CC(CC(C5)C3)C4)C2)cc1 [Compound 85] | –
21 | – | 25 to 50 | O=C(c1ccc(Cl)cc1)N1CCc2c(ncnc2NCC23CC4CC(CC(C4)C2)C3)C1 [Compound 82] | –
22 | – | 25 to 50 | O=S(=O)(Cc1ccc(Cl)cc1)N1CCc2c(ncnc2NCC23CC4CC(CC(C4)C2)C3)C1 [Compound 45] | –
23 | 0 to 25 | – | COc1ccc(CN2CCc3c(ncnc3NCC34CC5CC(CC(C5)C3)C4)C2)cc1O [Compound 204] | –
24 | – | 0 to 25 | O=S(=O)(c1ccc2ccccc2c1)N1CCc2c(ncnc2NCC23CC4CC(CC(C4)C2)C3)C1 [Compound 6] | –
25 | – | 50 to 75 | c1ccc(Oc2ccc(CN3CCc4c(ncnc4NCC45CC6CC(CC(C6)C4)C5)C3)cc2)cc1 [Compound 187] | –
26 | > 75 | – | CCOc1ccc(CN2CCc3c(ncnc3NCC34CC5CC(CC(C5)C3)C4)C2)cc1 [Compound 241] | –
27 | – | > 75 | O=C(COCc1ccccc1)N1CCc2c(ncnc2NCC23CC4CC(CC(C4)C2)C3)C1 [Compound 111] | –
28 | > 75 | – | Fc1ccc(CN2CCc3c(ncnc3NCC34CC5CC(CC(C5)C3)C4)C2)cc1 [Compound 218] | –
